Experimental data taken from ChEMBL document CHEMBL1201862, “PubChem BioAssay data set” (2004).
Active and inactive are the calls of the source.

Experiments:
[1] = biological target: T1, Tyrosine-protein phosphatase non-receptor type 22 (Homo sapiens, UniProt Q9Y2R2); type: functional
T1 sequence (Q9Y2R2 whole entry): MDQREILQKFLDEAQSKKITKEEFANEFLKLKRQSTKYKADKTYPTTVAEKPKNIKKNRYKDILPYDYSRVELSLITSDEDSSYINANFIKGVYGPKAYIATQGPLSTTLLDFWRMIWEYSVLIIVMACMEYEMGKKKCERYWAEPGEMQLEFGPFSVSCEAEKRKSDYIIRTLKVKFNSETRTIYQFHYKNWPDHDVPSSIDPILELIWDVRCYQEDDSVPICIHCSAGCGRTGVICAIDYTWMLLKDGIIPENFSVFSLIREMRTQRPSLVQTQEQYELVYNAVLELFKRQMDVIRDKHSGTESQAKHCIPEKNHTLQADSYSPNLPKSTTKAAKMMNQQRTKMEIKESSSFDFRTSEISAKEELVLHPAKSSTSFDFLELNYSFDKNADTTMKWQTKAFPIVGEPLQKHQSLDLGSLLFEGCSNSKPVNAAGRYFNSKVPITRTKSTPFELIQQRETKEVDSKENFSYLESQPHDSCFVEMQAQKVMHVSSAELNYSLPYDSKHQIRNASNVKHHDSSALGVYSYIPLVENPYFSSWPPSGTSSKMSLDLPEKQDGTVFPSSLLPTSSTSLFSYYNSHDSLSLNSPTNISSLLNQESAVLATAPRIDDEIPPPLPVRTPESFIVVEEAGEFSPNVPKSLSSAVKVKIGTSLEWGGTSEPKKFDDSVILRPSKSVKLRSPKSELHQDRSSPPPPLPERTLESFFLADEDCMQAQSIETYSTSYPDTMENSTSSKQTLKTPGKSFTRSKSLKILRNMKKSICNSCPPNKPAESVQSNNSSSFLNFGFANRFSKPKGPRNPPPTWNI

[2] = biological target: T1, Tyrosine-protein phosphatase non-receptor type 22; type: functional; remark: listed apart in the source
[3] = biological target: T2, Tyrosine-protein phosphatase non-receptor type 7 (Homo sapiens, UniProt P35236); type: functional
T2 sequence (P35236 whole entry): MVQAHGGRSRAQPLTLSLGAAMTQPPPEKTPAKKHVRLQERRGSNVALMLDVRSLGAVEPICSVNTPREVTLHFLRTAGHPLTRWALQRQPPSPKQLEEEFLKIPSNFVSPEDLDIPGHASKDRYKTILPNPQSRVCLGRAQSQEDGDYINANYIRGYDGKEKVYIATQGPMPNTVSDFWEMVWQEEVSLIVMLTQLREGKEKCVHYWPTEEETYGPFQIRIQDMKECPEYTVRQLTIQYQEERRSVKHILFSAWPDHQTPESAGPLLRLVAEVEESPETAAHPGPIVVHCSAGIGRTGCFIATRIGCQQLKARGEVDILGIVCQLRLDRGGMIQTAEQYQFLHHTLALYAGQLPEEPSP

[4] = Counterscreen for AddAB inhibitors: absorbance-based bacterial cell-based high throughput dose response assay for inhibitors of bacterial viability. [Related pubchem assays (depositor defined):AID435030, AID449728, AID449731, AID488942, AID488955, AID488956]; type: functional
Exodeoxyribonuclease V = biological target: T3, Exodeoxyribonuclease V (Escherichia coli (strain K12), UniProt P04993+P07648+P08394); test: E. coli RecBCD inhibitors, dose response, counter-screen for AddAB inhibitor project, absorbance, V66 E. coli, mutant T4 phage (AID 492957); type: functional, cell-based, Escherichia coli str. K-12 substr. MG1655
T3 sequence (P04993 whole entry): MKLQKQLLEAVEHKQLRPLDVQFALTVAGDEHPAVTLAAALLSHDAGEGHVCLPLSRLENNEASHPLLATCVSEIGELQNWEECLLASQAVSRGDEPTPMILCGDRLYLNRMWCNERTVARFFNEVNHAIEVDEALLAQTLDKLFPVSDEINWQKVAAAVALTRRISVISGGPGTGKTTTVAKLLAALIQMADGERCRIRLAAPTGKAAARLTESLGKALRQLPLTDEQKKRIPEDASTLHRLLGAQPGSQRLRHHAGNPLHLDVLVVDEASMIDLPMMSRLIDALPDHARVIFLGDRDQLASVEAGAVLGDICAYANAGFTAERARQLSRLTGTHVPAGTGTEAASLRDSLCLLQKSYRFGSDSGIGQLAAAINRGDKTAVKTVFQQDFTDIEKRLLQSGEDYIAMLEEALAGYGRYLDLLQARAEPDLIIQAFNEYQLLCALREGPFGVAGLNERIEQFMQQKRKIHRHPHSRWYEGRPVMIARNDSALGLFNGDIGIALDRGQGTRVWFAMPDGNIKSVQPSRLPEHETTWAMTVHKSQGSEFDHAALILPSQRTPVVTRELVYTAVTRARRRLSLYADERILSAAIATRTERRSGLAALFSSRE
T3 sequence (P07648 whole entry): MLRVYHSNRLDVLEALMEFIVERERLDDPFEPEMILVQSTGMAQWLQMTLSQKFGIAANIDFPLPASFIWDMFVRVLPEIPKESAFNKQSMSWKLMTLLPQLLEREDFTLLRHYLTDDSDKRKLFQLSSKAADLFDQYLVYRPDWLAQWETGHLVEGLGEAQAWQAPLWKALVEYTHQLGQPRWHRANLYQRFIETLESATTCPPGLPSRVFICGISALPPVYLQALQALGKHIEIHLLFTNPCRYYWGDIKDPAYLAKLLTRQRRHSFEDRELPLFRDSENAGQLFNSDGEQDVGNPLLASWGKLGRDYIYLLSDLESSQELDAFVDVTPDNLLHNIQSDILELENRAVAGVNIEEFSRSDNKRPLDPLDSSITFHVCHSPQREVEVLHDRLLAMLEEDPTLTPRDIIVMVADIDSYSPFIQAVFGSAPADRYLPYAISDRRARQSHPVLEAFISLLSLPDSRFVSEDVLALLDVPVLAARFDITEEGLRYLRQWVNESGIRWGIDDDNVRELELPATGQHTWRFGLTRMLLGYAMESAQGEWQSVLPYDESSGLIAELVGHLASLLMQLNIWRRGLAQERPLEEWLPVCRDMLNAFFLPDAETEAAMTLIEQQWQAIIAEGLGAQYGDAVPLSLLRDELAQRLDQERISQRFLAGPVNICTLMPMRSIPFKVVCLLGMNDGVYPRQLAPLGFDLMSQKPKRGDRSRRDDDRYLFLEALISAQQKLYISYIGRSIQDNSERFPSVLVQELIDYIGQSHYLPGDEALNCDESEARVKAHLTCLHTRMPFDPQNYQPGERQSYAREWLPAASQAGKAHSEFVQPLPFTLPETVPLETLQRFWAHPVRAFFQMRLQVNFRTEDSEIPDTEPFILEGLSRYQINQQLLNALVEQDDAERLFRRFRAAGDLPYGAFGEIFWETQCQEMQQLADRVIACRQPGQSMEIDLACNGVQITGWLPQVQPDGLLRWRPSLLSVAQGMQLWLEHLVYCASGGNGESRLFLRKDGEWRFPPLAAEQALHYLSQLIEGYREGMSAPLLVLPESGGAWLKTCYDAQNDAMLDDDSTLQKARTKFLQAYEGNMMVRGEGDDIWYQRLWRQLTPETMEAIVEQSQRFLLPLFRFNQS
T3 sequence (P08394 whole entry): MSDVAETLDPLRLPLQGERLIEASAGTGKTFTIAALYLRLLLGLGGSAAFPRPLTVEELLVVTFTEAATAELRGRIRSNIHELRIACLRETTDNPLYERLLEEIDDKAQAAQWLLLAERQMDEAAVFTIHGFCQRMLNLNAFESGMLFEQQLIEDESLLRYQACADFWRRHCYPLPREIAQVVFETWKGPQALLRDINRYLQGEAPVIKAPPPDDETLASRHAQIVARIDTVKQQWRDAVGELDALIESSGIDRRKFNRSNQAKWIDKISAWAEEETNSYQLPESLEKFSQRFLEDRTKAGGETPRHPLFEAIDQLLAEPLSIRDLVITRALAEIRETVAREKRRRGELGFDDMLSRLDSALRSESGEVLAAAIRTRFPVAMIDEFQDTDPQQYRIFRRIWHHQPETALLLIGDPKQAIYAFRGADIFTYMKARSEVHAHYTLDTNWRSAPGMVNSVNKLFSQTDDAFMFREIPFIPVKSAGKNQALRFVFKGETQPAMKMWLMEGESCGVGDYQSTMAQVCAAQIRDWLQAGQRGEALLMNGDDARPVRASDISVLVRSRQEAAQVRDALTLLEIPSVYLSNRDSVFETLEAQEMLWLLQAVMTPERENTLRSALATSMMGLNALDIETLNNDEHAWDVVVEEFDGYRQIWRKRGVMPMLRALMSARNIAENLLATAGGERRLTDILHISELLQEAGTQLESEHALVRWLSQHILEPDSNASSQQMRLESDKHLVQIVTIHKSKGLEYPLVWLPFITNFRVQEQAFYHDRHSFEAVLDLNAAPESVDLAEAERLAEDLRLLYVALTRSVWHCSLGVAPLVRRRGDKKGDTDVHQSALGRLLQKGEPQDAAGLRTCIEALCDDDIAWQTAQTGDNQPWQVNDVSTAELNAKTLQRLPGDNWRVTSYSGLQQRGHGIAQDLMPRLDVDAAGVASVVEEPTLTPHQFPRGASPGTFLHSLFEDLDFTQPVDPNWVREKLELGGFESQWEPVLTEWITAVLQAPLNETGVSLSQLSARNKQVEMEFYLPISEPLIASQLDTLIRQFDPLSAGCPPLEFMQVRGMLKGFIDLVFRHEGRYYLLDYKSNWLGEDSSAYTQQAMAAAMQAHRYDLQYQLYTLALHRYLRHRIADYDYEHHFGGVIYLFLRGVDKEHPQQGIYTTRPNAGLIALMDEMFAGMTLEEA

Nonstructural protein 1 = Nonstructural protein 1 (Influenza A virus, UniProt Q194T2); type: functional, Influenza A virus (A/California/07/2009(H1N1))
Chain of Nonstructural protein 1 (Q194T2 whole entry): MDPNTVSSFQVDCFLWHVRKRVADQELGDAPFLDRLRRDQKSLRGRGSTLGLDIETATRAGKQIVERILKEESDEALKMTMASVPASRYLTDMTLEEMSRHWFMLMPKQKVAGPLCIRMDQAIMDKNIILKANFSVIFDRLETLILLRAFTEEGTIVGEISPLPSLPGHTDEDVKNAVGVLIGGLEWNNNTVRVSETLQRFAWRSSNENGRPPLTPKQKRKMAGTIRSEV

[5] = test system: Streptococcus sp. 'group A'; test: growth inhibition of control SK(-) GAS strain, dose response, counter-screen for streptokinase expression inhibitor project, luminescence, kanamycin, BacTiterGlo, confirmation (AID 1900); type: functional, organism-based
[6] = biological target: Peroxisome proliferator-activated receptor gamma/Nuclear receptor coactivator 2 (Homo sapiens, UniProt P37231); test: (§1) TR-FRET dose response biochemical High Throughput Screening assay for agonists of the steroid receptor coactivator 2 (SRC-2) recruitment by the peroxisome proliferator-activated receptor gamma (PPAR gamma): non-selective agonists. [Related pubchem assays: 1297, 1032 ]; type: functional
Chain of Peroxisome proliferator-activated receptor gamma/Nuclear receptor coactivator 2 (P37231 whole entry): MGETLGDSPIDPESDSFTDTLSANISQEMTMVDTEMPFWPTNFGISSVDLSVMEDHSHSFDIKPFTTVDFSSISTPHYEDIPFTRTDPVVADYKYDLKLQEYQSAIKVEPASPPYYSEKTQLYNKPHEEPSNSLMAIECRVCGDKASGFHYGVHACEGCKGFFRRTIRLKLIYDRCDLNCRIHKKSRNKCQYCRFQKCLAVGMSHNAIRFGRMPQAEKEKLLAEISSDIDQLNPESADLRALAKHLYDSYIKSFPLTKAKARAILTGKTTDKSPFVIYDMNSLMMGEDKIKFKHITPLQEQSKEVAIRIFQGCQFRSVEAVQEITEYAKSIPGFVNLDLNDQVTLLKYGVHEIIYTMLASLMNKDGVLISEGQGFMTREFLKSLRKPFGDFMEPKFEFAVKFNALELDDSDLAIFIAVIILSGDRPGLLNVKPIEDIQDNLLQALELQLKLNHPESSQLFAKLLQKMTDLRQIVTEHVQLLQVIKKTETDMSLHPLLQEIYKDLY
Chain of Peroxisome proliferator-activated receptor gamma/Nuclear receptor coactivator 2 (Q15596 whole entry, further chain): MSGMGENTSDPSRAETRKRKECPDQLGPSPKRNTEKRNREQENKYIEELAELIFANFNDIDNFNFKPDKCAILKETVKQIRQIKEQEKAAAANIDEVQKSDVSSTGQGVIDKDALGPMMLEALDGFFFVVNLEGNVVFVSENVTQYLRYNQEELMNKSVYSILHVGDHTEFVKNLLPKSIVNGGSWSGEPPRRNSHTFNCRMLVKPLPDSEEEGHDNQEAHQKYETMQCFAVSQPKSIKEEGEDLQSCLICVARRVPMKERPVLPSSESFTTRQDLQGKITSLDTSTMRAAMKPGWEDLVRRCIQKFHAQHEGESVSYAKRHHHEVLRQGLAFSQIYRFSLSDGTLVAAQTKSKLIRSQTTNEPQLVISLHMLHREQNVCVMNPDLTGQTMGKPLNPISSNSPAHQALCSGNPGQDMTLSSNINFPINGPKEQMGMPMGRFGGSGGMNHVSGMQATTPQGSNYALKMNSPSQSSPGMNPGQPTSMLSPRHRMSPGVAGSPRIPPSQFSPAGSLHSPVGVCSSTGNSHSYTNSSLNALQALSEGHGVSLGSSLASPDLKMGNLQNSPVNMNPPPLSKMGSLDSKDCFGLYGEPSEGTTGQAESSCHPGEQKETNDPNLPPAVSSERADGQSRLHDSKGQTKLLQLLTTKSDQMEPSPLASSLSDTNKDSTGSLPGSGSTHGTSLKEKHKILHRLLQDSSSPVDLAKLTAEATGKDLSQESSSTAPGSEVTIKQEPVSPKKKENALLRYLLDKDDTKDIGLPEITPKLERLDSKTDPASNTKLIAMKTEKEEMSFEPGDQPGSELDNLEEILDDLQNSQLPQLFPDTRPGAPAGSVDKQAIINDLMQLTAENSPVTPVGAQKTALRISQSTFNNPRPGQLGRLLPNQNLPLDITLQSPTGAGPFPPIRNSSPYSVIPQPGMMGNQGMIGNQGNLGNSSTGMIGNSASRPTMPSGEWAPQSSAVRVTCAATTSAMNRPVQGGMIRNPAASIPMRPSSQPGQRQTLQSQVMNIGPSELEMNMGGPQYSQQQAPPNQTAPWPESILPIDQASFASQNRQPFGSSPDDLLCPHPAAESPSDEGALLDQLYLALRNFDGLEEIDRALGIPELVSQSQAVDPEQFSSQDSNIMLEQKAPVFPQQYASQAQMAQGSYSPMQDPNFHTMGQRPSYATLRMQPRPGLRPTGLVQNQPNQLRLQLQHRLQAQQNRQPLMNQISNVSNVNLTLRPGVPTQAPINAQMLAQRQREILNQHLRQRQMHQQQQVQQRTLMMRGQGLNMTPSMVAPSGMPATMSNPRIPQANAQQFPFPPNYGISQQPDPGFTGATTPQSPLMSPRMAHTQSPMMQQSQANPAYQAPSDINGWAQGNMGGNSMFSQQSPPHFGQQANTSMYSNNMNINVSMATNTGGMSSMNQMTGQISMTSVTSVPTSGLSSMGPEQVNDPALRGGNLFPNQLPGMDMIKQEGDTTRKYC

[7] = biological target: Peroxisome proliferator-activated receptor gamma/Nuclear receptor coactivator 1 (Homo sapiens, UniProt P37231); test: as §1, with “1 (SRC-1)” for “2 (SRC-2)”, “assays (depositor defined):AID1300, AID1808, AID504735, AID631]” for “assays: 1297, 1032 ]”; type: protein assay
[8] = biological target: Peroxisome proliferator-activated receptor gamma/Nuclear receptor coactivator 3 (Homo sapiens, UniProt P37231); test: as §1, with “3 (SRC-3)” for “2 (SRC-2)”, “1301 (Confirmation screen.), 1048 (Primary screen.)]” for “1297, 1032 ]”; type: functional
Chain of Peroxisome proliferator-activated receptor gamma/Nuclear receptor coactivator 3 (P37231 whole entry): as the sequence (P37231 whole entry) above
Chain of Peroxisome proliferator-activated receptor gamma/Nuclear receptor coactivator 3 (Q9Y6Q9 whole entry, further chain): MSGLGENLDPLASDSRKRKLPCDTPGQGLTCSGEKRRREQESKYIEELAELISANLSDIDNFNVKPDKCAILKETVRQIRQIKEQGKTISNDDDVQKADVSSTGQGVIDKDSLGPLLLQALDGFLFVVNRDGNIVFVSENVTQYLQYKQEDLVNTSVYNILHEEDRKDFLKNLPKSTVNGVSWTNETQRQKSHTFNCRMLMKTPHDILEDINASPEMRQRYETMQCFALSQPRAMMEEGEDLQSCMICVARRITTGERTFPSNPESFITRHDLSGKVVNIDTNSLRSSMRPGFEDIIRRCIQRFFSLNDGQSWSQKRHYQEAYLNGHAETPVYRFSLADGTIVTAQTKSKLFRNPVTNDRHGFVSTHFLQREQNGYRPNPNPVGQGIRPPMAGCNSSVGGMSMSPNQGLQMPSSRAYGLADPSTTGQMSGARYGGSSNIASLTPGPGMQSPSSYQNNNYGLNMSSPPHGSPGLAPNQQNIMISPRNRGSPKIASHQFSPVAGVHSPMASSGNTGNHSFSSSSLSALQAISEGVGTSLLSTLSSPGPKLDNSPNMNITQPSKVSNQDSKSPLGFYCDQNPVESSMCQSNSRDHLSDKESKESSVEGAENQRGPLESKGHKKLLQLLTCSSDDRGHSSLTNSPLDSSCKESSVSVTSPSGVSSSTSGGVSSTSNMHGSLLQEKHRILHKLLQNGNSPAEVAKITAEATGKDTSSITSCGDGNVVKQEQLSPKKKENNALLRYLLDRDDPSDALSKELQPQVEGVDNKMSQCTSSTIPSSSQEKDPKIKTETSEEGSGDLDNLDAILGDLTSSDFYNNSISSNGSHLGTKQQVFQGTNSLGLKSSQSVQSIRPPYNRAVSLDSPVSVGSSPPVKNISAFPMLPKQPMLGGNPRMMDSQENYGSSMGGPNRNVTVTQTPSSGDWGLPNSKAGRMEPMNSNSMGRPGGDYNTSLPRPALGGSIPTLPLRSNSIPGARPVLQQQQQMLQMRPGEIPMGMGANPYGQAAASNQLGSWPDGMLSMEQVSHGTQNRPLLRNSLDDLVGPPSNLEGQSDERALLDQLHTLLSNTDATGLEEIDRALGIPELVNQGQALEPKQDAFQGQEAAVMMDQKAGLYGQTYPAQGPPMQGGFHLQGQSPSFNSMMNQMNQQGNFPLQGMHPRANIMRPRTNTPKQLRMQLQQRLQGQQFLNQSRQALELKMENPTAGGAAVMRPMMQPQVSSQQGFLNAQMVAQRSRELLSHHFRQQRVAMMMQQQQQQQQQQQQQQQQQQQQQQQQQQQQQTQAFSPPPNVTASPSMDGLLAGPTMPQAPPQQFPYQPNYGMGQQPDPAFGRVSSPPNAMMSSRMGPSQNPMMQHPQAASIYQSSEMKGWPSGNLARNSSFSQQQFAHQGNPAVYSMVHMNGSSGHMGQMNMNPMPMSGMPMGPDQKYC

Streptococcus = test: Group A Streptococcus viability loss, dose response, counter-screen for streptokinase expression inhibitor project, luminescence, BacTiterGlo (AID 1915); type: functional, organism-based;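 also: potency for reduction of bacterial viability or growth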
Streptokinase A = biological target: T4, Streptokinase A (Streptococcus pyogenes serotype M1, UniProt P10520); test: S. pyogenes streptokinase expression inhibitors, potency, dose response, plasminogen activation absorbance, OD405 (AID 1914); type: functional, Streptococcus pyogenes M1 GAS;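 also: secreted streptokinase activity via plasminogen activation per viability signal from cell pellet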
T4 sequence (P10520 whole entry): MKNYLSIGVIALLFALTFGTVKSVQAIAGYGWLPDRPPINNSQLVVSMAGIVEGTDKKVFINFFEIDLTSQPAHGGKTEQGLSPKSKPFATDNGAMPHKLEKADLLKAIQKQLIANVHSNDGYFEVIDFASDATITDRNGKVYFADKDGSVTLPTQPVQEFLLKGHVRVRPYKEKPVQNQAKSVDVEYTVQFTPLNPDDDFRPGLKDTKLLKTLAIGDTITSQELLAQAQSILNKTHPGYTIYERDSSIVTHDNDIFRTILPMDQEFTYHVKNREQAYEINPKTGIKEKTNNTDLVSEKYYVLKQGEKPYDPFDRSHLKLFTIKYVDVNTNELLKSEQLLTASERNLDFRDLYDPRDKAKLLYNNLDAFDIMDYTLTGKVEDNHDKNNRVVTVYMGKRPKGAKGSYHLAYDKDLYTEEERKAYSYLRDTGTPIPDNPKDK

Row | Compound | IC50 [1] | IC50 [2] | IC50 [3] | further results
1 | O=C(NNC(=O)c1cccc(Br)c1)C(=O)N1CCCCC1 | > 79.4 µM (inactive) | > 79.4 µM (inactive) | > 79.4 µM (inactive) | –
2 | O=C(Nc1ccc2[nH]c(O)nc2c1)c1ccc([N+](=O)[O-])o1 | – | – | – | IC50 [4]: 29 µM (inactive); IC50 (Exodeoxyribonuclease V): > 119 µM (inactive)
3 | CC12CCC(C(=O)N(CSC(=S)N/N=C\c3ccccc3O)C1=O)C2(C)C (stereo not drawn) | – | – | – | IC50 (Nonstructural protein 1): 2.09 µM (active); EC50 [5]: 2.43 µM (active); EC50 [6]: 7.31 µM (active); EC50 [7]: 7.15 µM (active); EC50 [8]: 34.9 µM (not active); EC50 (Streptococcus): 5.29 µM (active); EC50 (Streptokinase A): > 150 µM (not active)
4 | CCOC(=O)C(NC(=O)CCl)(Nc1ccc(C(O)(C(=O)OCC)C(F)(F)F)cc1)C(F)(F)F (stereo not drawn) | > 79.4 µM (inactive) | > 79.4 µM (inactive) | > 79.4 µM (inactive) | –
5 | CCCCC(C(=O)OCC)C(N)Cc1ccc(F)cc1 (stereo not drawn) | > 79.4 µM (inactive) | > 79.4 µM (inactive) | > 79.4 µM (inactive) | –
